Measured values taken from patent publication US20050282818A1, “Ubiquitin ligase inhibitors” (Rigel Pharmaceuticals, Inc., priority 2004, published 2005).

Legend:
[1] = test system: ICAM-1 expression in A549 cells; test: ICAM assay (IL-1 induced ICAM-1/CD54 expression in A549 cells); type: cell-based, human; conditions: Homo sapiens, A549, ICAM assay
In short: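 A549 cells, 10,000/well, preincubated with compound 1 h at 37° C, then stimulated with IL-1 (4 μl of 25 ng/ml added) for 4 h. Surface ICAM-1 detected by anti-CD54 plus anti-mouse IgG staining for 1 h, luminescent read-out after PBS washes.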

TRAF6/Uev1A/Ubc13 = target: T1, TRAF6/Uev1A/Ubc13 (Homo sapiens, UniProt Q9Y4K3); test: TRAF6/Uev1A/Ubc13 plate-based ubiquitin ligase assay; type: biochemical
T1 sequence (Q9Y4K3 1-522): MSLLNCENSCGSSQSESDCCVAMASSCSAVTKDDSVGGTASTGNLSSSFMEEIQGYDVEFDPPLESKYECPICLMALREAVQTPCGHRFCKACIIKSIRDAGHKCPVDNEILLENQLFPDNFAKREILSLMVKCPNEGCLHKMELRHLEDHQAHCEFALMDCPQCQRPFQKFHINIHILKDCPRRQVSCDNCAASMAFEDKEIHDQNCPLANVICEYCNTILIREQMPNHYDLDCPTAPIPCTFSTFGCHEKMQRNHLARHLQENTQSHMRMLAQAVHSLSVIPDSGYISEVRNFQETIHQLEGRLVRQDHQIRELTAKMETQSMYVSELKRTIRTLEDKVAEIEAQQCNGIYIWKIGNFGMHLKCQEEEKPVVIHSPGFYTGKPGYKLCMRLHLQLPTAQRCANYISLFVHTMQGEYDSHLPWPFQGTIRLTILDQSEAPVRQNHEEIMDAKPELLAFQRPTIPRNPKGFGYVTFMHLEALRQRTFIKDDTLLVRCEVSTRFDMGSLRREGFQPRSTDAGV
In short: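 Ligase activity was read as luminescence from anti-Flag/HRP detection of Flag-ubiquitin bound to casein-blocked Ni-plates alongside His-ubiquitin after a 1 h room-temperature reaction. Buffer: 62.5 mM Tris pH 7.5, 6.25 mM MgCl2, 1.0 mM DTT, 2 μM ATP; E1, Uev1a/Ubc13 and TRAF6 added last to start. IC50s derived across compound concentrations.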

APC11/APC2 = APC11/APC2 (Homo sapiens, UniProt Q9NYG5+Q9UJX6); test: APC-11/APC-2 ligase assay (APC auto ubiquitination); type: biochemical; conditions: APC assay
In short: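 His-tagged APC was captured on nickel plates with human E1 (5 ng/well), UbcH5c (20 ng/well), APC (100 ng/well) and Flag-ubiquitin (100 ng/well) in a Tris pH 7.6 reaction buffer containing 2.5 mM ATP, for 1 hour at room temperature. Read-out was anti-Flag/HRP chemiluminescence. IC50 was set against a DMSO control, typically from 6 or 8 concentrations.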

Chain of APC11/APC2 (Q9NYG5 whole entry): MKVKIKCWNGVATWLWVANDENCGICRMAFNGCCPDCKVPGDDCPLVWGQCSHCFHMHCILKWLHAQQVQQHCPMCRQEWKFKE
Chain of APC11/APC2 (Q9UJX6 whole entry): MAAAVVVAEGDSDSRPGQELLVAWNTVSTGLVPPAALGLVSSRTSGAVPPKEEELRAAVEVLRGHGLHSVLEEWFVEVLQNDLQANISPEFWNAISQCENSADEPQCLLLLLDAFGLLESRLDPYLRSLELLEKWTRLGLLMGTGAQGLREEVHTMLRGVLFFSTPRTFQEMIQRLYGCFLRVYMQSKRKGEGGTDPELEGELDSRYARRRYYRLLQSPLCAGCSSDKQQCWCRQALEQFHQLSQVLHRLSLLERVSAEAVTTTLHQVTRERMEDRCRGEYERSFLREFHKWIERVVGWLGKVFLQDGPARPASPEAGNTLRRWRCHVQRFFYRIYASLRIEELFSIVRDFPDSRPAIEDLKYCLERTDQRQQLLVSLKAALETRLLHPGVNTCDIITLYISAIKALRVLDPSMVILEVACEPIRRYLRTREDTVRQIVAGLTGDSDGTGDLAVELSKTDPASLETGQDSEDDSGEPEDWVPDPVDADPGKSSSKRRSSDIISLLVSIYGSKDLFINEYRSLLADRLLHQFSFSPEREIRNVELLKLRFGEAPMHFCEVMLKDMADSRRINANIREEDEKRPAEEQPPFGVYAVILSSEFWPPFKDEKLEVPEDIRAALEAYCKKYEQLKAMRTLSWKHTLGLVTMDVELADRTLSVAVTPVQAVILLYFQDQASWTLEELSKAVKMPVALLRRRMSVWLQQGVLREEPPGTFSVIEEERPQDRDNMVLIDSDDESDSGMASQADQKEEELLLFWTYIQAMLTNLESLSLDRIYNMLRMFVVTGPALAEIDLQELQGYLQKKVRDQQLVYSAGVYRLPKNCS

Structure (SMILES) | IC50 [1] [µM] | IC50 (TRAF6/Uev1A/Ubc13) [µM] | IC50 (APC11/APC2) [µM]
Cc1ccc2nsnc2c1S(=O)(=O)Nc1ccccc1F [compound 452, N-(2-fluorophenyl)-5-methyl-2,1,3-benzthiadiazole-4-sulfonamide] | ≥ 20 | ≥ 20 | ≥ 20
CC(=O)Nc1ccc(-c2ccc(C(C)(C)C)cc2)c2nonc12 [compound 453, N-(7-(4-t-butylphenyl)-2,1,3-benzoxadiazol-4-yl)acetamide] | ≥ 20 | ≥ 20 | 1 to 20
CC(C)(C)c1ccc(-c2cc3cc(O)ccc3c3nonc23)cc1 [compound 454] | ≥ 20 | ≥ 20 | 1 to 20
O=S(=O)(NCc1ccncc1)c1ccc(Cl)c2nonc12 [compound 455, 7-chloro-N-(pyridin-4-ylmethyl)-2,1,3-benzoxadiazole-4-sulfonamide] | 1 to 20 | ≥ 20 | ≥ 20
O=C1CCCN1CCCNS(=O)(=O)c1ccc(Cl)c2nonc12 [compound 456, 7-chloro-N-(3-[2-oxopyrrolidin-1-yl]propyl)-2,1,3-benzoxadiazole-4-sulfonamide] | ≥ 20 | ≥ 20 | ≥ 20
Cc1cccc(-c2cc3nsnc3cc2F)c1C [compound 457, 5-(2,3-dimethylphenyl)-6-fluoro-2,1,3-benzthiadiazole] | ≥ 20 | ≥ 20 | ≥ 20
Fc1cc2nsnc2cc1-c1ccccc1 [compound 458, 5-fluoro-6-phenyl-2,1,3-benzthiadiazole] | ≥ 20 | ≥ 20 | ≥ 20
Cc1ccc(-c2cc3nsnc3cc2F)cc1C [compound 459, 5-(3,4-dimethylphenyl)-6-fluoro-2,1,3-benzthiadiazole] | ≥ 20 | ≥ 20 | ≥ 20
Fc1cc2nsnc2cc1-c1cccc2c1OCO2 [compound 460, 5-(benzodioxol-4-yl)-6-fluoro-2,1,3-benzthiadiazole] | ≥ 20 | ≥ 20 | ≥ 20
Cc1cc(C)cc(-c2cc3nsnc3cc2F)c1 [compound 461, 5-(3,5-dimethylphenyl)-6-fluoro-2,1,3-benzthiadiazole] | ≥ 20 | ≥ 20 | ≥ 20
COc1ccc(-c2cc3nsnc3cc2F)cc1 [compound 462, 5-(4-methoxyphenyl)-6-fluoro-2,1,3-benzthiadiazole] | ≥ 20 | ≥ 20 | ≥ 20
COc1ccc(-c2cc3nsnc3cc2F)cc1OC [compound 463, 5-(3,4-dimethoxyphenyl)-6-fluoro-2,1,3-benzthiadiazole] | ≥ 20 | ≥ 20 | ≥ 20
O=[N+]([O-])c1ccc(-c2ccc(Oc3ccccc3)cc2)c2nonc12 [compound 464, 4-nitro-7-(4-phenoxyphenyl)-2,1,3-benzoxadiazole] | 1 to 20 | 1 to 20 | 1 to 20
COc1ccc(-c2ccc([N+](=O)[O-])c3nonc23)cc1OC [compound 465, 4-(3,4-dimethoxyphenyl)-7-nitro-2,1,3-benzoxadiazole] | 1 to 20 | ≥ 20 | ≥ 20
COc1ccc(-c2ccc([N+](=O)[O-])c3nonc23)cc1 [compound 466, 4-(4-methoxyphenyl)-7-nitro-2,1,3-benzoxadiazole] | 1 to 20 | 1 to 20 | ≥ 20
O=[N+]([O-])c1ccc(-c2ccc3c(c2)OCO3)c2nonc12 [compound 467, 4-(benzodioxol-5-yl)-7-nitro-2,1,3-benzoxadiazole] | 1 to 20 | 1 to 20 | 1 to 20

Structure (SMILES) | IC50 [1] [µM] | IC50 (TRAF6/Uev1A/Ubc13) [µM] | IC50 (APC11/APC2) [µM]
Cc1ccc(-c2ccc([N+](=O)[O-])c3nonc23)cc1 [compound 468, 4-(4-methylphenyl)-7-nitro-2,1,3-benzoxadiazole] | 1 to 20 | ≥ 20 | 1 to 20
O=[N+]([O-])c1ccc(-c2cccc3ccccc23)c2nonc12 [compound 469, 4-(naphthalen-1-yl)-7-nitro-2,1,3-benzoxadiazole] | 1 to 20 | ≥ 20 | 1 to 20
Cc1cccc(-c2ccc([N+](=O)[O-])c3nonc23)c1C [compound 470, 4-(2,3-dimethylphenyl)-7-nitro-2,1,3-benzoxadiazole] | 1 to 20 | ≥ 20 | 1 to 20
Cc1ccc(C)c(-c2ccc([N+](=O)[O-])c3nonc23)c1 [compound 471, 4-(2,5-dimethylphenyl)-7-nitro-2,1,3-benzoxadiazole] | 1 to 20 | ≥ 20 | 1 to 20
Cc1ccc(-c2ccc([N+](=O)[O-])c3nonc23)cc1C [compound 472, 4-(3,4-dimethylphenyl)-7-nitro-2,1,3-benzoxadiazole] | 1 to 20 | 1 to 20 | 1 to 20
Cc1cccc(-c2cc(C(F)(F)F)cc3nonc23)c1C [compound 473, 4-(2,3-dimethylphenyl)-6-(trifluoromethyl)-2,1,3-benzoxadiazole] | ≥ 20 | ≥ 20 | ≥ 20
FC(F)(F)c1cc(-c2ccccc2)c2nonc2c1 [compound 474, 4-phenyl-6-(trifluoromethyl)-2,1,3-benzoxadiazole] | ≥ 20 | ≥ 20 | ≥ 20
FC(F)(F)c1cc(-c2ccc3c(c2)OCO3)c2nonc2c1 [compound 475, 4-(benzodioxol-5-yl)-6-(trifluoromethyl)-2,1,3-benzoxadiazole] | ≥ 20 | ≥ 20 | ≥ 20
Cc1ccc(-c2cc([N+](=O)[O-])cc3nonc23)cc1 [compound 476, 6-nitro-4-p-tolyl-2,1,3-benzoxadiazole] | ≥ 20 | ≥ 20 | ≥ 20
O=[N+]([O-])c1cc(-c2ccc(C(F)(F)F)cc2C(F)(F)F)c2nonc2c1 [compound 477, 4-(2,4-bis[trifluoromethyl]phenyl)-6-nitro-2,1,3-benzoxadiazole] | 1 to 20 | ≥ 20 | 1 to 20
Cc1cccc(-c2cc([N+](=O)[O-])cc3nonc23)c1 [compound 478, 6-nitro-4-m-tolyl-2,1,3-benzoxadiazole] | 1 to 20 | ≥ 20 | 1 to 20
O=[N+]([O-])c1cc(-c2cc(F)cc(F)c2)c2nonc2c1 [compound 479, 4-(3,5-difluorophenyl)-6-nitro-2,1,3-benzoxadiazole] | ≥ 20 | ≥ 20 | ≥ 20
O=[N+]([O-])c1cc(-c2cccc(C(F)(F)F)c2)c2nonc2c1 [compound 480, 4-(3-[trifluoromethyl]phenyl)-6-nitro-2,1,3-benzoxadiazole] | 1 to 20 | ≥ 20 | 1 to 20
CC(C)(C)c1ccc(-c2cc([N+](=O)[O-])cc3nonc23)cc1 [compound 481, 4-(4-t-butylphenyl)-6-nitro-2,1,3-benzoxadiazole] | 1 to 20 | 1 to 20 | 1 to 20
COc1ccccc1-c1cc([N+](=O)[O-])cc2nonc12 [compound 482, 4-(2-methoxyphenyl)-6-nitro-2,1,3-benzoxadiazole] | ≥ 20 | ≥ 20 | ≥ 20
